Measurements as given in PubChem BioAssay AID372 (MTDP, 2006).
Active and inactive are the calls of the source. No stated cut-off is given here; in the data, active means inhibition above about 50%; inactive means the rest.

Biological target: Gag-Pol polyprotein (Human immunodeficiency virus type 1 group M subtype B (isolate HXB2)) (UniProt P04585)
Experiment: RNase H inhibition, HIV 1 Gag Pol polyprotein, FRET biochemical assay, screening (AID 372)
Details: HIV-1 RT RNase H, FRET RNA/DNA substrate fluorescence

SMILES | IC50
Cc1cccc(NC(=O)c2c(NC(=O)c3ccc([N+](=O)[O-])cc3)sc3c2CCCC3)c1 | 1.5 µM
O=C1C(Cl)=C/C(=N\S(=O)(=O)c2ccc(Cl)cc2)C(Cl)=C1Cl | 4 µM
Cc1ccc(NC(=O)c2c(NC(=O)c3ccccc3F)sc3c2CCCCC3)cc1 | inactive
COc1ccc(/C=C\C(=O)c2c(-c3ccccc3)c3cc(C)ccc3[nH]c2=O)c(OC)c1 | 22 µM
CCOc1ccc(NC(=O)c2c(NC(=O)c3ccccc3)sc3c2CCCCC3)cc1 | inactive
COc1ccc2c(c1)N(C(=O)CN1C(=O)c3ccccc3C1=O)C(C)(C)c1ssc(=S)c1-2 | 3 µM
CC1=C(C)CC(C(=O)Nc2ccc(N3C(=O)c4ccccc4C3=O)cc2)C(C(=O)O)C1 (stereo unspecified) | 100 µM
COc1cc(C=O)ccc1OCCCOc1cccc(Oc2ccccc2)c1 | 100 µM
Cc1ccc(S(=O)(=O)/N=C2\C=C(Sc3ncn[nH]3)C(=O)c3ccccc32)cc1 | 1.3 µM
O=C1C=C/C(=N\S(=O)(=O)c2cc(Cl)ccc2Cl)C=C1Cl | 2 µM
Cc1cc(C(=O)O)ccc1-n1c(C)ccc1C | 100 µM
O=S(=O)(Nc1cccc(C(F)(F)F)c1)c1ccc2ccccc2c1 | 25 µM
COc1ccccc1NC(=O)c1c(NC(=O)Cc2ccccc2)sc2c1CCCCC2 | inactive
O=C1Nc2ccc(I)cc2C1(O)N1CCOCC1 (stereo unspecified) | 6.3 µM
O=C1NC(=S)N(c2cccc(Cl)c2)C(=O)/C1=C\C=C\c1ccco1 | 7.7 µM
Cc1ccc(-c2cc(C(=O)Nc3sc(C(=O)OC(C)C)c(C)c3C(N)=O)c3ccccc3n2)s1 | inactive
Cc1cccc(NCC(=O)N/N=C\c2c(Br)cc(Br)c(O)c2Br)c1 | 62 µM
CCOc1ccc(N2C(=O)/C(=C/c3ccc(I)o3)C(=O)NC2=S)cc1 | 4.8 µM
N#Cc1c(N)nc(SCC(=O)c2ccc(O)c(O)c2)c(C#N)c1-c1ccc(O)cc1 | 0.9 µM
O=C1NC(=S)N(c2ccccc2F)C(=O)C1=Cc1ccco1 | 2.2 µM
Cc1ccc(C=C2C(=O)NC(=S)N(c3ccccc3Cl)C2=O)o1 | 8 µM
Cc1ccc(-c2n[nH]c(=S)n2/N=C/c2ccc(O)c(O)c2O)cc1 | 1.8 µM

SMILES | IC50
CCN1C(=O)/C(=C/c2ccoc2)C(=O)NC1=S | 40 µM
O=C(N/N=C/c1ccccc1Cl)c1cc(O)c(O)c(O)c1 | 0.6 µM
O=C(O)c1cc(-c2ccc(/C=C3/Sc4ccccc4C3=O)o2)ccc1O | 3.3 µM
O=C(N/N=C/c1ccc(/C=N/NC(=O)c2ccc(O)c(O)c2)cc1)c1ccc(O)c(O)c1 | 2.1 µM
Oc1ccc(/C=N/Nc2nncc(-c3ccccc3)n2)c(O)c1O | 6.8 µM
COc1cccc2cc(C(N)=O)c(=O)oc12 | 4 µM
Cc1ccc(C(=O)NC(=S)Nc2ccc(-c3nc4ccccc4s3)cc2)cc1[N+](=O)[O-] | 20 µM
Cc1c(Cl)ccc2c1NC(C(=O)O)C1CC=CC21 (stereo unspecified) | 22 µM
COc1ccc(N2C(=O)/C(=C/c3ccc(I)o3)C(=O)NC2=S)cc1 | 3.7 µM
O=C1C=CC(=O)C(c2cccc(Cl)c2)=C1 | 2.3 µM
Cc1cc(-c2ccc(C=C3C(=O)NC(=S)NC3=O)o2)c([N+](=O)[O-])cc1C | 3 µM
O=C1NN(c2ccc(I)cc2)C(=O)/C1=C\c1ccc(O)c(O)c1 | 10.8 µM
CCOc1ccc(C(=O)Nc2ccc3c(c2)C(=O)c2ccccc2C3=O)cc1 | 8 µM
CCOc1ccc(NC(=O)c2c(NC(=O)c3ccco3)sc3c2CCCCC3)cc1 | 10 µM
Cc1ccc(NC(=O)c2c(NC(=O)C(F)(F)F)sc(-c3ccccc3)c2C)c(C)c1 | 2.8 µM
CCC(=O)Nc1sc2c(c1C(=O)Nc1ccc(OC)cc1)CCCCC2 | inactive
O=C1NC(=S)N(c2ccccc2F)C(=O)/C1=C/c1ccc(OCc2cccc(C(=O)O)c2)cc1 | 9 µM
O=C1/C(=C\c2ccc(O)c(O)c2)SC(=S)N1c1cccc(Cl)c1 | 4.5 µM
O=C1c2ccccc2C(=O)N1c1ccc(-c2nc3ccc(N4C(=O)c5ccccc5C4=O)cc3[nH]2)cc1 | 4 µM
Cc1cc(C)c2c(=O)[nH]c(SCC(=O)c3ccc(O)c(O)c3)nc2n1 | 3.4 µM
Cc1sc(NC(=O)c2ccc(Br)o2)c(C(N)=O)c1C | 5.5 µM
O=C1C(Cl)=CC(=NS(=O)(=O)c2ccccc2)C=C1Cl | 3.1 µM

SMILES | IC50
COc1ccc2oc(=O)c(-c3csc(Nc4ccc(Br)cc4)n3)cc2c1 | 10.1 µM
Cc1ccc(S(=O)(=O)N=C2C=C(Cl)C(=O)C(Br)=C2)cc1 | 3.1 µM
Cc1ccc(S(=O)(=O)/N=C2\C=CC(=O)C=C2Cl)cc1 | 1.5 µM
Cc1sc(NC(=O)C2CCCO2)c(C(N)=O)c1C (stereo unspecified) | 3 µM
O=C1C(Cl)=C/C(=N\S(=O)(=O)c2ccccc2)C(Cl)=C1Cl | 3.8 µM
Cc1nn(CC(=O)Nc2sc(C)c(C)c2C(N)=O)c(C)c1[N+](=O)[O-] | 4.3 µM
C=CCn1c(N)c(-c2nc3ccccc3[nH]2)sc1=S | 2.8 µM
O=C1CC(=O)c2ccc3c4c(ccc1c24)C(=O)CC3=O | 3.8 µM
Oc1c(Br)cc(/C=N/Nc2nnc3c(n2)[nH]c2ccccc23)c(Br)c1O | 4 µM
Cc1cc(Br)ccc1N1C(=O)/C(=C/c2ccco2)C(=O)NC1=S | 7 µM
O=C1/C(=C/c2ccco2)C(=O)N(c2ccc(Br)cc2)C(=S)N1c1ccccc1 | 10.2 µM
Cc1ccccc1-n1c(O)c(C=C2C=CC=N2)c(=O)[nH]c1=S | 10.2 µM
CC1=NN(c2ccc(S(N)(=O)=O)cc2)C(=O)/C1=C/c1ccc(-c2ccc(Cl)cc2Cl)o1 | 3.8 µM
Cc1ccc(-n2c(/C=C/c3ccc(O)c(O)c3)nc3ccccc3c2=O)cc1 | 3.8 µM
O=C1NC(=S)N(c2ccc(Cl)cc2)C(=O)/C1=C/c1ccco1 | 8.9 µM
O=C(Nc1ccc(N2CCN(C(=O)c3ccccc3)CC2)cc1)c1ccc(-c2ccccc2)cc1 | 4.2 µM
O=C1NC(=S)S/C1=C/c1cccc(OCc2ccc(Cl)c(Cl)c2)c1 | 4 µM
COC(=O)c1c(N)sc(C(=O)Nc2ccc(OC)cc2)c1C | 6.6 µM
CCOc1ccc(C2=CC(=O)C=CC2=O)cc1 | 0.9 µM
Cc1cc(-c2ccco2)c(C#N)c(SCC(=O)c2ccc(O)c(O)c2)n1 | 1.4 µM
O=C1/C(=C/c2ccc(O)c(O)c2)SC(=S)N1c1ccc(O)cc1 | 3.5 µM
O=C(Nc1sc2c(c1C(=O)Nc1cccc3ccccc13)CCCCC2)c1ccccc1F | inactive
